Publication PMC6690571 (ACS Omega, 2019)

Columns and labels:
mGlu5 [1] = molecular target: T1, mGlu5 (Homo sapiens, UniProt P41594); test: standard mGlu5 calcium mobilization functional assay, human mGlu5; format: cell-based; settings: for EC50: EC50 (PAM)
mGlu5 [2] = molecular target: T1, mGlu5; test: standard mGlu5 calcium mobilization functional assay, PAM and NAM modes; format: cell-based
mGlu5 [3] = molecular target: T1, mGlu5; settings: Figure 1 ref 14; cited from earlier work
[4] = human mGlu5 assay, synthetic material

T1 sequence (P41594 21-1212): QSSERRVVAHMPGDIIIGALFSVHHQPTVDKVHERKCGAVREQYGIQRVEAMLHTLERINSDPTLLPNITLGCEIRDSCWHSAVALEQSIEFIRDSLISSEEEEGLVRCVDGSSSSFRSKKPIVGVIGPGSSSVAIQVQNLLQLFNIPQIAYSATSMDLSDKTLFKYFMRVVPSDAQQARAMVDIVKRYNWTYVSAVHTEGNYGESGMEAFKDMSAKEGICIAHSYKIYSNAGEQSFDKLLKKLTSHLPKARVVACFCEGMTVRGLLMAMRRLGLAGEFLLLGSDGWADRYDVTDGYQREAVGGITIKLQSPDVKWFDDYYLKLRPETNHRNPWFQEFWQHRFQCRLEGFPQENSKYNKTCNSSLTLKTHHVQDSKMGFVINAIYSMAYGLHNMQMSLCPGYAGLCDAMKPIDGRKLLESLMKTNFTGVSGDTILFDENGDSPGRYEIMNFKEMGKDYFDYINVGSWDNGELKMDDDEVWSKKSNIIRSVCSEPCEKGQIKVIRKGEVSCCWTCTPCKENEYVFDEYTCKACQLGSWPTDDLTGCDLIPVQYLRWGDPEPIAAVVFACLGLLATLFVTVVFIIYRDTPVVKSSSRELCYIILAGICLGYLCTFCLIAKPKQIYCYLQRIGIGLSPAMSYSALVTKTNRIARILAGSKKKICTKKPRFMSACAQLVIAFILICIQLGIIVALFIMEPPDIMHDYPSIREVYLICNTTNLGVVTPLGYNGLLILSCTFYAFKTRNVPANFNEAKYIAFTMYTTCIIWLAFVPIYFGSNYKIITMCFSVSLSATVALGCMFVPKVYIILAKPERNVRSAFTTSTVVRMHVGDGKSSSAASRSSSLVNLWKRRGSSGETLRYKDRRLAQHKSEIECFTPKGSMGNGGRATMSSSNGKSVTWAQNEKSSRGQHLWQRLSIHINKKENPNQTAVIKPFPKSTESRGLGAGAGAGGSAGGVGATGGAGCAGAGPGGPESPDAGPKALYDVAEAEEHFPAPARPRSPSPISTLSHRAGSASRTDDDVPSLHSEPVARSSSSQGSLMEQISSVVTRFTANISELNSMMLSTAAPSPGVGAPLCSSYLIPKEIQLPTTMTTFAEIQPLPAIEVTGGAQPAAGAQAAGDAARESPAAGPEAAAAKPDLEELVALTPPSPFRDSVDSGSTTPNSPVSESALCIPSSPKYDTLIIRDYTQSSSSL

Question: With NC(=O)c1ccc(C#Cc2cccc(F)c2)cn1 [M4, 5-((3-Fluorophenyl)ethynyl)picolinamide] as the compound, how does the EC50 (mGlu5 [1]; kit-produced M4, human mGlu5 assay, material from the BMO production kit) read?
Answer: Its EC50 is 0.51 µM.

Question: And the EC50 (mGlu5 [1]; synthetic-derived M4, human mGlu5 assay, synthetic material)?
Answer: Its EC50 is 0.315 µM.

Question: And the “% Glu Max, kit-produced M4” value (mGlu5 [1]; human mGlu5 assay, material from the BMO production kit)?
Answer: The value was 75 % Glu Max.

Question: And the “% Glu Max, synthetic-derived M4” value (mGlu5 [1]; [4])?
Answer: The value was 77%.

Question: And the “agonism (no agonism noted up to), synthetic-derived M4” value (mGlu5 [1]; [4])?
Answer: The value was greater than 30 µM.

Question: Which “activity in NAM mode” value (mGlu5 [2]) does the source give for O=C(C(=O)c1cccc(F)c1)c1ccc(C(=O)NC2CCC2)nc1 [M5, N-Cyclobutyl-5-(2-(3-fluorophenyl)-2-oxoacetyl)picolinamide] here?
Answer: Its value is “inactive”.

Question: And the “activity in PAM mode” value (mGlu5 [2])?
Answer: The value was “inactive”.

Question: For O=C(c1ccc(C(=O)NC2CCC2)nc1)c1cccc(F)c1 [M6, N-Cyclobutyl-5-(3-fluorobenzoyl)picolinamide], which “activity in NAM mode” value (mGlu5 [2]) is on record?
Answer: The value was “inactive”.

Question: And the “activity in PAM mode” value (mGlu5 [2])?
Answer: The value was “inactive”.

Question: Which “activity of metabolite M2, the product of amide hydrolysis” value (mGlu5 [3]) does the source give for O=C(O)c1ccc(C#Cc2cccc(F)c2)cn1 [compound 3, 5-((3-Fluorophenyl)ethynyl)picolinic Acid] here?
Answer: The value was “inactive”.
